pIC50: −log10 of the molar value. In brackets after ≈: the same amount, converted by molar mass. Activity calls are given as the source filed them. No cut-off for these calls is given here.
Tests used:
[1] = target: Histone deacetylase 3/Nuclear receptor corepressor 2 (HDAC3/NCoR2) (Homo sapiens, UniProt O15379); experiment: biochemical; type: cell-based
Mus musculus [2] = experiment: Upregulation of acetylated H3K14 protein expression in right side cortex of bilateral common carotid artery occlusion-induced vascular dementia C57BL/6J mouse model at 25 mg/kg, ip measured after 3 months by Western blot analysis; type: functional, organism-based
[3] = Aqueous solubility of compound in water incubated at 37 degree C by LC-MS analysis; type: physicochemical
Mus musculus [4] = experiment: Anti-vascular cognitive impairment activity against bilateral common carotid artery occlusion-induced vascular dementia C57BL/6J mouse model assessed as ratio of cerebral blood flow in right parietal area at 25 mg/kg, ip administered post surgery measured after 3 months (reference value: 0.761 +/- 0.037); type: functional
[5] = target: T1, Protein deacetylase HDAC6 (Homo sapiens, UniProt Q9UBN7); experiment: Inhibition of recombinant human N-terminal GST-tagged HDAC6 (1 to 1215 residues) expressed in baculovirus infected insect cells using RHK-K(Ac)-AMC as substrate after 90 mins by fluorimetry analysis
T1 sequence (Q9UBN7 whole entry): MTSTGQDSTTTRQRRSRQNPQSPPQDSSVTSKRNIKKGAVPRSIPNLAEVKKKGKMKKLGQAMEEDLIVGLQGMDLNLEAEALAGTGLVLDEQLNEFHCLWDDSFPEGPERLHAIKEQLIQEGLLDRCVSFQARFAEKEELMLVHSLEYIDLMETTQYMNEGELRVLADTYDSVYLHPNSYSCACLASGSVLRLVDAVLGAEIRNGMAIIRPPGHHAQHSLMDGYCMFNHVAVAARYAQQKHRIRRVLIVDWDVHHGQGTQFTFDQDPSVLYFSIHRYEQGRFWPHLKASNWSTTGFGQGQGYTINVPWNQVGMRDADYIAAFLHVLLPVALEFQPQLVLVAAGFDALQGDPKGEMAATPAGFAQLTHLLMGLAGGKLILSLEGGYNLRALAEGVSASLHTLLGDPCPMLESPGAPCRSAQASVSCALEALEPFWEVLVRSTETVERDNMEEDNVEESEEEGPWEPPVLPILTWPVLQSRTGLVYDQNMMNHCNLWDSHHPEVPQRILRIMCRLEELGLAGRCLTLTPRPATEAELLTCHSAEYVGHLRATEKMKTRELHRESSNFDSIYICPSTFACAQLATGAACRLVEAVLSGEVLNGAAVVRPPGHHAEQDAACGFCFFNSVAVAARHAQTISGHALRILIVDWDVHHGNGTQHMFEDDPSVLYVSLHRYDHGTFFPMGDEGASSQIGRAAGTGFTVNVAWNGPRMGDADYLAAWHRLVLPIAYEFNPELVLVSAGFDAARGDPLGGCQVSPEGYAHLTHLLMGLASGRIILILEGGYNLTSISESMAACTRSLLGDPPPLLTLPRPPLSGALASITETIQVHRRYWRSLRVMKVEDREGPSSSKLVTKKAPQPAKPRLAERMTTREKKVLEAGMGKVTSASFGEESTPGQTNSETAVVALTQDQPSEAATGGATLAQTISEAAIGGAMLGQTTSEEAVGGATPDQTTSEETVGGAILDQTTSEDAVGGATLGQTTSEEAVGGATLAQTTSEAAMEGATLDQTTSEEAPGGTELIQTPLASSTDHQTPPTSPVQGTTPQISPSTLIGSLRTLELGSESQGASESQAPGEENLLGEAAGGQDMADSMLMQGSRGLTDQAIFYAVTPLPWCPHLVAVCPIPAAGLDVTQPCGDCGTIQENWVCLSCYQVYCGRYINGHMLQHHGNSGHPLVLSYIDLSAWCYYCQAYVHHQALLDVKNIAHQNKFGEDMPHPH

Mus musculus [6] = experiment: Upregulation of acetylated H4K5 protein expression in right side cortex of bilateral common carotid artery occlusion-induced vascular dementia C57BL/6J mouse model at 25 mg/kg, ip measured after 3 months by Western blot analysis; type: functional, organism-based
Mus musculus [7] = experiment: Upregulation of acetylated H3K14 protein expression in left side cortex of bilateral common carotid artery occlusion-induced vascular dementia C57BL/6J mouse model at 25 mg/kg, ip measured after 3 months by Western blot analysis; type: functional, organism-based
Histone deacetylase 8 = target: T2, Histone deacetylase 8 (Homo sapiens, UniProt Q9BY41); experiment: Inhibition of recombinant C-terminal His-tagged and N-terminal Streptavidin2-tagged human HDAC8 (1 to 377 residues) expressed in baculovirus infected insect cells using RHK-K(Ac)-AMC as substrate after 60 mins by fluorescence assay
T2 sequence (Q9BY41 whole entry): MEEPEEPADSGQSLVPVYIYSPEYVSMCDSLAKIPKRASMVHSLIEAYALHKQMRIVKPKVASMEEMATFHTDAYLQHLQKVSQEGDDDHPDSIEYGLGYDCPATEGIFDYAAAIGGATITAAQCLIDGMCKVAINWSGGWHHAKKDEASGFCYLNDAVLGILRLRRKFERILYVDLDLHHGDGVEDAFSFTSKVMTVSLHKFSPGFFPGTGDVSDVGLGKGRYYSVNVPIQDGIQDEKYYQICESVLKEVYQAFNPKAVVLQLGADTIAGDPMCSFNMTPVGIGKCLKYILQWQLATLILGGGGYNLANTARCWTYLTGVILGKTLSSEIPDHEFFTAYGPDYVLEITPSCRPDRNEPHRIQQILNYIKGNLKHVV

[8] = Clearance in Sprague-Dawley rat at 2 mg/kg, iv measured up to 24 hrs; type: ADME, organism-based; conditions: in vivo
Mus musculus [9] = experiment: Anti-vascular cognitive impairment activity against bilateral common carotid artery occlusion-induced vascular dementia C57BL/6J mouse model assessed as reversal of hippocampal atrophy by measuring increase in hippocampal volume at 25 mg/kg, ip administered post surgery measured after 3 months by 7T-MRI analysis; type: functional, organism-based
Mus musculus [10] = experiment: Anti-vascular cognitive impairment activity against bilateral common carotid artery occlusion-induced vascular dementia C57BL/6J mouse model assessed as improvement in short-term non-spatial working memory by measuring increase in novel object recognition at 25 mg/kg, ip administered post surgery measured after 1 to 3 months by novel object recognition test; type: functional, organism-based
SH-SY5Y = experiment: Neuroprotective activity against OGD-induced hypoxic injury in human SH-SY5Y cells assessed as LDH release at 5 uM incubated under oxygen/glucose deprivation-induced hypoxic medium by LDH assay (reference value: 27.47 +/- 3.23 %); type: functional
[11] = Volume of distribution at steady state in Sprague-Dawley rat at 2 mg/kg, iv measured up to 24 hrs; type: ADME, organism-based; conditions: in vivo, read-out: Vdss
[12] = AUC (0 to infinity) in Sprague-Dawley rat at 2 mg/kg, iv measured up to 24 hrs; type: ADME, organism-based; design: dose 2 mg/kg, time infinity, route intravenous; conditions: in vivo
[13] = Cmax in Sprague-Dawley rat at 10 mg/kg, po measured up to 24 hrs; type: ADME, organism-based; design: dose 10 mg/kg, route oral; conditions: in vivo
Histone deacetylase 4 = Histone deacetylase 4 (Homo sapiens, UniProt P56524); experiment: Inhibition of recombinant N-terminal GST-tagged/C-terminal His-tagged human HDAC4 (627 to 1084 residues) expressed in baculovirus infected insect cells using RHK-K(Ac)-AMC as substrate after 60 mins by fluorimetry analysis
Sequence of Histone deacetylase 4 (P56524 whole entry, the tested form may be a part): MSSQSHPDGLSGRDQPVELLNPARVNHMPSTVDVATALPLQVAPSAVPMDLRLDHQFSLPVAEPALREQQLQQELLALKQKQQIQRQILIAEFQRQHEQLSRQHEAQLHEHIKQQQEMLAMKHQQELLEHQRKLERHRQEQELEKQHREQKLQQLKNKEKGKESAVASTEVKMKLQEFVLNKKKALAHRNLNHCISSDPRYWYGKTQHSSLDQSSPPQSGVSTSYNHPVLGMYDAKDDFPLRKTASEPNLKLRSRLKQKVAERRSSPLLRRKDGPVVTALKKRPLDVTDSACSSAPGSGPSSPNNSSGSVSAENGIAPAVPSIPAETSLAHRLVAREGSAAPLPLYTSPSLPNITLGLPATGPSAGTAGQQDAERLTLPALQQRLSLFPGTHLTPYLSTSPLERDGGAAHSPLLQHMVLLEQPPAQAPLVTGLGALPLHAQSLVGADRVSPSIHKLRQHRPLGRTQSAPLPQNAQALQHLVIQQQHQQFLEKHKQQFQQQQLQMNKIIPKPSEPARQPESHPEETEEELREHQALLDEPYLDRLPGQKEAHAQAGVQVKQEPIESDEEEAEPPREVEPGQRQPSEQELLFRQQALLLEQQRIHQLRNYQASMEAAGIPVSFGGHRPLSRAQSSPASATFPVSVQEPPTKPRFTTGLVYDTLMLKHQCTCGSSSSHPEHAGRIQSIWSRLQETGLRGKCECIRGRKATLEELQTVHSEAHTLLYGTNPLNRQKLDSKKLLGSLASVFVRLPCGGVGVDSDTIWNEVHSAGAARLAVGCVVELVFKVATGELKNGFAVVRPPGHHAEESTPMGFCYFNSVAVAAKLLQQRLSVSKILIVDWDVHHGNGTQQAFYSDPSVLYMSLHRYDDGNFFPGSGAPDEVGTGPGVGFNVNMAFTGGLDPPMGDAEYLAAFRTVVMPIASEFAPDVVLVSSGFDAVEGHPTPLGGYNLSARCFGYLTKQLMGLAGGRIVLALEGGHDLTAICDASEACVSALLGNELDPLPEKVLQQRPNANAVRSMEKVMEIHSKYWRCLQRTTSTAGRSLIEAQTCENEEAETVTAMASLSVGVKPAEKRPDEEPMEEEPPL

[14] = Aqueous solubility of compound in ethanol incubated at 37 degree C by LC-MS analysis; type: physicochemical
[15] = Tmax in Sprague-Dawley rat at 10 mg/kg, po measured up to 24 hrs; type: ADME, organism-based; conditions: in vivo
Mus musculus [16] = experiment: Upregulation of acetylated H4K5 protein expression in left side cortex of bilateral common carotid artery occlusion-induced vascular dementia C57BL/6J mouse model at 25 mg/kg, ip measured after 3 months by Western blot analysis; type: functional, organism-based

Sequence of Histone deacetylase 3/Nuclear receptor corepressor 2 (HDAC3/NCoR2) (O15379 whole entry): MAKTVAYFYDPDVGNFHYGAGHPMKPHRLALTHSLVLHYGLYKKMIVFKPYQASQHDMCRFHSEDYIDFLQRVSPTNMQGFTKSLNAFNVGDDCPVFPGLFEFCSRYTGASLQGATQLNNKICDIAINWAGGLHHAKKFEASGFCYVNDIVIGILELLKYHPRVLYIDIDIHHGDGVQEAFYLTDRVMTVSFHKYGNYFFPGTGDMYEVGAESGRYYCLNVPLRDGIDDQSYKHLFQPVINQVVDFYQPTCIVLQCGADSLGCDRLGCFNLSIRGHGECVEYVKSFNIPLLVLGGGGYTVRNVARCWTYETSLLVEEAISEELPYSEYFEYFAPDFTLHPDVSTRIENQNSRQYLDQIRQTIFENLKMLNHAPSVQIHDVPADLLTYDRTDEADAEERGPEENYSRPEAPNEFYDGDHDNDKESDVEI
Sequence of Histone deacetylase 3/Nuclear receptor corepressor 2 (HDAC3/NCoR2) (Q9Y618 whole entry, further chain): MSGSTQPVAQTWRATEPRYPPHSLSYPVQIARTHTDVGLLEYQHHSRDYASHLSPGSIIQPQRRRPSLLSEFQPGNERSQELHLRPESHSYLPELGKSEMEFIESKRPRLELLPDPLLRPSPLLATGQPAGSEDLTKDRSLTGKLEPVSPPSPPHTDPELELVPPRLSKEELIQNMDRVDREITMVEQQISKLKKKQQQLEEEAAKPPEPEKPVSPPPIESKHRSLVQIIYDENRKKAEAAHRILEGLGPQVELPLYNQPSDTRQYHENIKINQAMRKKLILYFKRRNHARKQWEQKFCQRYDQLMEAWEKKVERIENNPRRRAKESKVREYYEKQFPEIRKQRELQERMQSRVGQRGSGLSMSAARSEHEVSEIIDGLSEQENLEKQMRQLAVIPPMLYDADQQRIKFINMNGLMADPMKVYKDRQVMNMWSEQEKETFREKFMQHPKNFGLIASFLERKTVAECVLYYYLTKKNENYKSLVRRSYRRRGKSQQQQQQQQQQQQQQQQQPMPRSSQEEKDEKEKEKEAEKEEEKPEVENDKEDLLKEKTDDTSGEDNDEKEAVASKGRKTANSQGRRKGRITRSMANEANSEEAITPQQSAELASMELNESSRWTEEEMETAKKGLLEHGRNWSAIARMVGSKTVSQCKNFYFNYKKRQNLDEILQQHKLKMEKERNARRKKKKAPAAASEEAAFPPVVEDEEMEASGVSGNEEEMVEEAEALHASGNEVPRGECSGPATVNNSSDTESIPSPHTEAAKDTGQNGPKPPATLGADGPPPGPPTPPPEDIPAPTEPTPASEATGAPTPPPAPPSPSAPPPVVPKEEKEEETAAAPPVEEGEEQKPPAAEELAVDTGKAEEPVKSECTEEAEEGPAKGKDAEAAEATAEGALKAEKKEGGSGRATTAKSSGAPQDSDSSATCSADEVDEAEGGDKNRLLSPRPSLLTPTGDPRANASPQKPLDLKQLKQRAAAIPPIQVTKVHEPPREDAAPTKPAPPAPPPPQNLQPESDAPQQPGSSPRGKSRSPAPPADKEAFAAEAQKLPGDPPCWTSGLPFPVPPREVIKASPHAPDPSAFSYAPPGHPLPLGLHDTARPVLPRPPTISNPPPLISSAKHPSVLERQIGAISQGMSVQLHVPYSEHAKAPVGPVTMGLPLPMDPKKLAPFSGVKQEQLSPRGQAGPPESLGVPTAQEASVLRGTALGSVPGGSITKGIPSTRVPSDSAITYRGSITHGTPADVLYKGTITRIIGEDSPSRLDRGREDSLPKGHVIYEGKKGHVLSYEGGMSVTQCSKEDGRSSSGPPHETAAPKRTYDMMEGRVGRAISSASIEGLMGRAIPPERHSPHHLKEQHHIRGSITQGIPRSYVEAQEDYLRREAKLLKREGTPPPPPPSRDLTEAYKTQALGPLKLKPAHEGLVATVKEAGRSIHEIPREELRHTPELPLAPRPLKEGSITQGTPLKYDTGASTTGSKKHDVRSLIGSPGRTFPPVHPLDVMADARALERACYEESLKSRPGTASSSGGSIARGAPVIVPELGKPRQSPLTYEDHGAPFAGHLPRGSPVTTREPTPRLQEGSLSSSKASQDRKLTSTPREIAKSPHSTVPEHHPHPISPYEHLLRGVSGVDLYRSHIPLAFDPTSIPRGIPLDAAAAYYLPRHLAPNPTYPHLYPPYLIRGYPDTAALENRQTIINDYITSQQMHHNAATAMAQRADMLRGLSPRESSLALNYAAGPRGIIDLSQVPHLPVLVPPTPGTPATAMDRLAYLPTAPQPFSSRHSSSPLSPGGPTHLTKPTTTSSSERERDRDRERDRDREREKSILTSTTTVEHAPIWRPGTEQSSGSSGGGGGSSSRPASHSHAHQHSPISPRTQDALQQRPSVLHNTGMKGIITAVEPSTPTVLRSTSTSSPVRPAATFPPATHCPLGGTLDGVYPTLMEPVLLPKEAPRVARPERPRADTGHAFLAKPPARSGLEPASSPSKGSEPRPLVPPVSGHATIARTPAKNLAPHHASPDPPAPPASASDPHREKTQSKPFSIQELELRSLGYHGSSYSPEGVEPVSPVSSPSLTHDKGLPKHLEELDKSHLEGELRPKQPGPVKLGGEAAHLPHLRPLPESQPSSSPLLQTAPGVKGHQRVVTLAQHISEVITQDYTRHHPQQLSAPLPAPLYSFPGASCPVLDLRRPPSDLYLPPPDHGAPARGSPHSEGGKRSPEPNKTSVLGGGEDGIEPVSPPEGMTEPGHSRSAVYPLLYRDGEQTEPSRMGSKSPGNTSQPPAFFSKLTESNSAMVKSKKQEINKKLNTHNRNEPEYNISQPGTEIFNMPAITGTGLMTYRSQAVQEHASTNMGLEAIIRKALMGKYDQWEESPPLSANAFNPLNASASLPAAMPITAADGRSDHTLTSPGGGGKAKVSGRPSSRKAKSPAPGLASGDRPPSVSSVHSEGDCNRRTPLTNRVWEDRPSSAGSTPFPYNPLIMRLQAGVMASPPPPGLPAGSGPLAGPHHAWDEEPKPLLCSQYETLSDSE

pIC50 [1]: 5.54 | solubility [3]: < 1 µg/mL | pIC50 [5]: 5.90 | pIC50 (Histone deacetylase 8): 6.27 | clearance [8]: 21.3 mL/min/kg | Vd [11]: 13.8 L/kg | AUC(0-inf) [12]: 1850 ng·h/mL | Cmax [13]: 8.9 ng/mL | IC50 (Histone deacetylase 4): Not Active | solubility [14]: 6.58 µg/mL (≈ 14.2 µM) | Tmax [15]: 3.5 h
SMILES: O=C(/C=C/c1ccc(CNCCCN2c3ccccc3CCc3ccc(Cl)cc32)cc1)NO
Activity (Mus musculus [2]): Active | Ratio (Mus musculus [4]): 0.923 | Activity (Mus musculus [6]): Active | Activity (Mus musculus [7]): Active | Activity (Mus musculus [9]): Active | Activity (Mus musculus [10]): Active | Activity (SH-SY5Y): 17.73% | Activity (Mus musculus [16]): Active

Source: ChEMBL document CHEMBL4602647, “Protective effects of 10,11-dihydro-5H-dibenzo[b,f]azepine hydroxamates on vascular cognitive impairment” (Eur J Med Chem, 2020)
